Experiments:
blackgrass = assay: Test B pre/postemergence blackgrass; format: in vivo, Alopecurus myosuroides
Procedure, shortened: (§1)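 Test chemicals in a non-phytotoxic solvent mixture with surfactant were sprayed preemergence onto planted seeds and postemergence onto plants 2 to 18 cm tall (1- to 4-leaf stage). After twelve to sixteen days in a greenhouse, injury was visually rated against untreated controls from 0 (no effect) to 10 (complete control).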

surinam grass = assay: Test B pre/postemergence surinam grass; format: in vivo, Brachiaria decumbens
Procedure, shortened: as §1

cocklebur = assay: Test B pre/postemergence cocklebur; format: in vivo, Xanthium strumarium
Procedure, shortened: as §1

corn = assay: Test B pre/postemergence corn; format: in vivo, Zea mays
Procedure, shortened: as §1

crabgrass = assay: Test B pre/postemergence crabgrass; format: in vivo, Digitaria sanguinalis
Procedure, shortened: as §1

giant foxtail = assay: Test B pre/postemergence giant foxtail; format: in vivo, Setaria faberii
Procedure, shortened: as §1

morningglory = assay: Test B pre/postemergence morningglory; format: in vivo, Ipomoea hederacea; conditions: for Plant response rating, Morningglory: scale of 0 to 10 where 0 is no effect and 10 is complete control
Procedure, shortened: as §1

pigweed = assay: Test B pre/postemergence pigweed; format: in vivo, Amaranthus retroflexus; conditions: for Plant response rating, Redroot pigweed: scale of 0 to 10 where 0 is no effect and 10 is complete control
Procedure, shortened: as §1

rape = assay: Test B pre/postemergence rape; format: in vivo, Brassica napus; conditions: for Plant response rating, Rape: scale of 0 to 10 where 0 is no effect and 10 is complete control
Procedure, shortened: as §1

soybean = assay: Test B pre/postemergence soybean; format: in vivo, Glycine max; conditions: for Plant response rating, Soybean: scale of 0 to 10 where 0 is no effect and 10 is complete control
Procedure, shortened: as §1

sugar beet = assay: Test B pre/postemergence sugar beet; format: in vivo, Beta vulgaris; conditions: for Plant response rating, Sugarbeets: scale of 0 to 10 where 0 is no effect and 10 is complete control
Procedure, shortened: as §1

velvetleaf = assay: Test B pre/postemergence velvetleaf; format: in vivo, Abutilon theophrasti; conditions: for Plant response rating, Velvetleaf: scale of 0 to 10 where 0 is no effect and 10 is complete control
Procedure, shortened: as §1

wheat = assay: Test B pre/postemergence wheat; format: in vivo, Triticum aestivum; conditions: for Plant response rating, Wheat: scale of 0 to 10 where 0 is no effect and 10 is complete control
Procedure, shortened: as §1

wild oat = assay: Test B pre/postemergence wild oat; format: in vivo, Avena fatua; conditions: for Plant response rating, Wild oats: scale of 0 to 10 where 0 is no effect and 10 is complete control
Procedure, shortened: as §1

purple nutsedge = assay: Test B pre/postemergence purple nutsedge; format: in vivo, Cyperus rotundus; conditions: for Plant response rating, Nutsedge: scale of 0 to 10 where 0 is no effect and 10 is complete control
Procedure, shortened: as §1

rice = assay: Test B flood test rice; format: in vivo, Oryza sativa
Procedure, shortened: (§2)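 Each value is a visual injury score relative to controls, with 10 meaning complete control and 0 no effect. Evaluation took place twelve to sixteen days after the 2-leaf-stage plants were treated and kept in the greenhouse.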

smallflower flatsedge = assay: Test B flood test smallflower flatsedge; format: in vivo, Cyperus difformis
Procedure, shortened: as §2

duck salad = assay: Test B flood test duck salad; format: in vivo, Heteranthera limosa
Procedure, shortened: as §2

bamyardgrass = assay: Test B flood test barnyardgrass; format: in vivo, Echinochloa crus-galli
Procedure, shortened: as §2

[1] = Postemergence, Rate 250 g/ha, scale 0 to 10
[2] = Postemergence, Rate 500 g/ha, scale of 0 to 10 where 0 is no effect and 10 is complete control
[3] = Preemergence, Rate 62 g/ha, scale of 0 to 10 where 0 is no effect and 10 is complete control
[4] = Preemergence, Rate 125 g/ha, scale of 0 to 10 where 0 is no effect and 10 is complete control
[5] = Preemergence, Rate 250 g/ha, scale 0 to 10, 0 is no effect, 10 is complete control
[6] = Preemergence, Rate 500 g/ha, scale 0 to 10, 0 is no effect, 10 is complete control
[7] = Rate 62 g/ha, Postemergence, scale 0 to 10 (0 no effect, 10 complete control)
[8] = Rate 125 g/ha, Postemergence, scale 0 to 10, 0 is no effect, 10 is complete control
[9] = Rate 62 g/ha, flood test species, Pre-emergence, visual evaluation after twelve to sixteen days
[10] = Rate 125 g/ha, under heading Pre-emergence, flood test species, visual evaluation after twelve to sixteen days
[11] = Rate 250 g/ha, Pre-emergence (flood test species), scale 0 to 10, 0 is no effect, 10 is complete control
[12] = Rate 500 g/ha, Pre-emergence, flood test species, scale 0 to 10 (0 no effect, 10 complete control)

COC(=O)C(C)n1c(=O)on(C(=O)N(c2ccc(F)cc2F)C(C)C)c1=O (stereo not shown) [Compound 463]
Blackgrass plant response rating (blackgrass; [1]): 0
Blackgrass plant response rating (blackgrass; [2]): 2
Plant response rating, Blackgrass (blackgrass; [3]): 0
Plant response rating, Blackgrass (blackgrass; [4]): 0
Blackgrass plant response rating (blackgrass; [5]): 2
Blackgrass plant response rating (blackgrass; [6]): 4
Blackgrass plant response rating (blackgrass; [7]): 0
Blackgrass plant response rating (blackgrass; [8]): 0
B. signalgrass plant response rating (surinam grass; Postemergence, Rate 250 g/ha, scale 0 to 10, 0 no effect, 10 complete control): 0
B. signalgrass plant response rating (surinam grass; [2]): 0
Plant response rating, B. signalgrass (surinam grass; [3]): 0
Plant response rating, B. signalgrass (surinam grass; [4]): 0
B. signalgrass plant response rating (surinam grass; [5]): 0
B. signalgrass plant response rating (surinam grass; [6]): 2
B. signalgrass plant response rating (surinam grass; [7]): 0
B. signalgrass plant response rating (surinam grass; [8]): 0
Cocklebur plant response rating (cocklebur; [1]): 0
Cocklebur plant response rating (cocklebur; [2]): 2
Plant response rating, Cocklebur (cocklebur; [3]): 0
Plant response rating, Cocklebur (cocklebur; [4]): 0
Cocklebur plant response rating (cocklebur; [5]): 0
Cocklebur plant response rating (cocklebur; [6]): 0
Cocklebur plant response rating (cocklebur; [7]): 0
Cocklebur plant response rating (cocklebur; [8]): 0
Corn plant response rating (corn; [1]): 0
Corn plant response rating (corn; [2]): 0
Plant response rating, Corn (corn; [3]): 0
Plant response rating, Corn (corn; [4]): 0
Corn plant response rating (corn; [5]): 0
Corn plant response rating (corn; [6]): 0
Corn plant response rating (corn; [7]): 0
Corn plant response rating (corn; [8]): 0
Crabgrass plant response rating (crabgrass; [1]): 2
Crabgrass plant response rating (crabgrass; [2]): 2
Plant response rating, Crabgrass (crabgrass; [3]): 0
Plant response rating, Crabgrass (crabgrass; [4]): 0
Crabgrass plant response rating (crabgrass; [5]): 2
Crabgrass plant response rating (crabgrass; [6]): 2
Crabgrass plant response rating (crabgrass; [7]): 0
Crabgrass plant response rating (crabgrass; [8]): 0
Giant foxtail plant response rating (giant foxtail; [1]): 6
Giant foxtail plant response rating (giant foxtail; [2]): 6
Plant response rating, Giant foxtail (giant foxtail; [3]): 0
Plant response rating, Giant foxtail (giant foxtail; [4]): 0
Giant foxtail plant response rating (giant foxtail; [5]): 3
Giant foxtail plant response rating (giant foxtail; [6]): 10
Giant foxtail plant response rating (giant foxtail; [7]): 0
Giant foxtail plant response rating (giant foxtail; [8]): 0
Morningglory plant response rating (morningglory; [1]): 2
Plant response rating, Morningglory (morningglory; Preemergence, Rate 62 g/ha): 0
Plant response rating, Morningglory (morningglory; Preemergence, Rate 125 g/ha): 0
Morningglory plant response rating (morningglory; [5]): 0
Morningglory plant response rating (morningglory; [6]): 0
Morningglory plant response rating (morningglory; [7]): 0
Morningglory plant response rating (morningglory; [8]): 0
Redroot pigweed plant response rating (pigweed; [1]): 0
Plant response rating, Redroot pigweed (pigweed; Preemergence, Rate 62 g/ha): 2
Plant response rating, Redroot pigweed (pigweed; Preemergence, Rate 125 g/ha): 5
Redroot pigweed plant response rating (pigweed; [5]): 10
Redroot pigweed plant response rating (pigweed; [6]): 10
Redroot pigweed plant response rating (pigweed; [7]): 0
Redroot pigweed plant response rating (pigweed; [8]): 0
Rape plant response rating (rape; [1]): 0
Plant response rating, Rape (rape; Preemergence, Rate 62 g/ha): 0
Plant response rating, Rape (rape; Preemergence, Rate 125 g/ha): 0
Rape plant response rating (rape; [5]): 0
Rape plant response rating (rape; [6]): 0
Rape plant response rating (rape; [7]): 0
Rape plant response rating (rape; [8]): 0
Soybean plant response rating (soybean; [1]): 1
Plant response rating, Soybean (soybean; Preemergence, Rate 62 g/ha): 0
Plant response rating, Soybean (soybean; Preemergence, Rate 125 g/ha): 0
Soybean plant response rating (soybean; [5]): 0
Soybean plant response rating (soybean; [6]): 0
Soybean plant response rating (soybean; [7]): 1
Soybean plant response rating (soybean; [8]): 1
Sugarbeets plant response rating (sugar beet; [1]): 0
Plant response rating, Sugarbeets (sugar beet; Preemergence, Rate 62 g/ha): 0
Plant response rating, Sugarbeets (sugar beet; Preemergence, Rate 125 g/ha): 0
Sugarbeets plant response rating (sugar beet; [5]): 0
Sugarbeets plant response rating (sugar beet; [6]): 0
Sugarbeets plant response rating (sugar beet; [7]): 0
Sugarbeets plant response rating (sugar beet; [8]): 0
Velvetleaf plant response rating (velvetleaf; [1]): 0
Plant response rating, Velvetleaf (velvetleaf; Preemergence, Rate 62 g/ha): 0
Plant response rating, Velvetleaf (velvetleaf; Preemergence, Rate 125 g/ha): 0
Velvetleaf plant response rating (velvetleaf; [5]): 0
Velvetleaf plant response rating (velvetleaf; [6]): 2
Velvetleaf plant response rating (velvetleaf; [7]): 0
Velvetleaf plant response rating (velvetleaf; [8]): 0
Wheat plant response rating (wheat; [1]): 0
Plant response rating, Wheat (wheat; Preemergence, Rate 62 g/ha): 0
Plant response rating, Wheat (wheat; Preemergence, Rate 125 g/ha): 0
Wheat plant response rating (wheat; [5]): 0
Wheat plant response rating (wheat; [6]): 0
Wheat plant response rating (wheat; [7]): 0
Wheat plant response rating (wheat; [8]): 0
Wild oats plant response rating (wild oat; [1]): 0
Plant response rating, Wild oats (wild oat; Preemergence, Rate 62 g/ha): 0
Plant response rating, Wild oats (wild oat; Preemergence, Rate 125 g/ha): 0
Wild oats plant response rating (wild oat; [5]): 0
Wild oats plant response rating (wild oat; [6]): 0
Wild oats plant response rating (wild oat; [7]): 0
Wild oats plant response rating (wild oat; [8]): 0
Nutsedge plant response rating (purple nutsedge; [1]): 0
Plant response rating, Nutsedge (purple nutsedge; Preemergence, Rate 62 g/ha): 0
Plant response rating, Nutsedge (purple nutsedge; Preemergence, Rate 125 g/ha): 0
Nutsedge plant response rating (purple nutsedge; [5]): 0
Nutsedge plant response rating (purple nutsedge; [6]): 0
Nutsedge plant response rating (purple nutsedge; [7]): 0
Nutsedge plant response rating (purple nutsedge; [8]): 0
Plant response rating, Rice (0 to 10 scale, 0 is no effect, 10 is complete control) (rice; [9]): 0
Rice plant response rating (0 to 10 scale, 0 is no effect, 10 is complete control) (rice; [10]): 0
Rice plant response rating (rice; [11]): 0
Rice plant response rating (rice; [12]): 0
Plant response rating, S. Flatsedge (0 to 10 scale, 0 is no effect, 10 is complete control) (smallflower flatsedge; [9]): 0
S. Flatsedge plant response rating (0 to 10 scale, 0 is no effect, 10 is complete control) (smallflower flatsedge; [10]): 0
S. Flatsedge plant response rating (smallflower flatsedge; [11]): 0
S. Flatsedge plant response rating (smallflower flatsedge; [12]): 0
Plant response rating, Ducksalad (0 to 10 scale, 0 is no effect, 10 is complete control) (duck salad; [9]): 0
Ducksalad plant response rating (0 to 10 scale, 0 is no effect, 10 is complete control) (duck salad; [10]): 0
Ducksalad plant response rating (duck salad; [11]): 0
Ducksalad plant response rating (duck salad; [12]): 0
Plant response rating, Barnyardgrass (0 to 10 scale, 0 is no effect, 10 is complete control) (bamyardgrass; [9]): 0
Barnyardgrass plant response rating (0 to 10 scale, 0 is no effect, 10 is complete control) (bamyardgrass; [10]): 0
Barnyardgrass plant response rating (bamyardgrass; [11]): 0
Barnyardgrass plant response rating (bamyardgrass; [12]): 0

Reference: patent US6737383B1, “Herbicidal oxadiazolidines” (priority 1999, dated 2004)
